The values that follow come from patent US12508261B2, “Methods of treating depression with vortioxetine” (Rundle Research LLC, priority 2017, dated 2025).

A short description of the data set: Clinical pharmacokinetic study (RUN-001): vortioxetine 5 mg once daily for 29 days, then 28 days washout, obese vs normal-weight subjects. It counts as in vivo, human. To be noted: both, human, in vivo. The procedure:
To test if the obese patients would require different washout guidelines for preventing serotonin syndrome, 16 obese subjects (BMI≥35) and 13 normal subjects (BMI<25) completed a clinical trial where they were administered daily with low doses (5 mg/day) of vortioxetine for 29 days in a controlled study. All subjects were subsequently tracked for 28 days after discontinuing vortioxetine on day 29. Blood samples were collected and processed according to standard techniques.
The normal-weight control group consisted of healthy male and female volunteers aged 18 to 45 years. Their body mass index (BMI) values fell in the range of […]. […] Normal weight and obese subjects were matched as closely as possible for gender and age.
CYP2D6 genotype status was determined from whole blood samples drawn from each subject. Known alleles of CYP2D6 were tested for, as well as the presence of gene duplications (LabCorp, Inc.). CYP2D6 metabolizer status was categorized as ultra-rapid, extensive, intermediate, or poor. Ultra-rapid and poor metabolizers were not included in the study.
All subjects received vortioxetine, 5 mg once daily in the morning, for 29 days. The first dose was on Day 1, and the last dose was on Day 29. Blood sampling continued for another 28 days after the last dose, through Day 57.
Subjects spent 12 hours in the study unit on Day 1 (first dose of vortioxetine) and Day 29 (last dose of vortioxetine). On those two study days, venous blood samples (7 mL each) were drawn prior to the dose of vortioxetine, and at 1, 2, 4, 6, 8, 10, and 12 hours after dosage.
During the 29-day period of daily vortioxetine administration, subjects returned to the study unit in the morning of the following study days: 2, 3, 5, 8, 10, 12, 15, 17, 19, 22, 24, 26, and 29. At each visit, a single venous blood sample (7 mL) was drawn before the daily dose of vortioxetine. Subjects underwent a brief interview to assess subjective effects and possible adverse events. Subjects were then discharged until the next scheduled visit. They were provided with vortioxetine doses sufficient for daily morning administration until the next visit. No more than 2 consecutive doses of vortioxetine were taken on an outpatient basis.
On Day 29 (the final dose of vortioxetine), subjects spent 12 hours in the study unit as described above. They returned to the study unit for a single blood sample on the mornings of the following Days: 30, 31, 33, 36, 38, 40, 43, 45, 47, 50, 52, 54, and 57.
Plasma concentrations of vortioxetine were determined by liquid chromatography—mass spectrometry using a Shimadzu HPLC system coupled to a Sciex API-4000 mass spectrometer.
The internal standard (vortioxetine-d8) was added to calibration standards, quality control samples, and unknown study samples. All samples were extracted with methyl tert-butyl ether. The organic phase was separated and evaporated to dryness; the reconstituted extract was injected into the HPLC system. The HPLC column was a Unison UK-C18, 50 mm×2 mm, 3 micron particle size. The mobile phase consisted of an organic component (0.1% formic acid in acetonitrile) and an aqueous component (0.1% formic acid and 2 mM ammonium acetate in water). This was delivered in gradient mode at a net flow rate of 0.4 mL/min, with the organic fraction varying from 40% to 96%. m/z monitored were: 299.1/150.1 for vortioxetine, and 307.1/153 for vortioxetine-d8. The limit of quantitation was 0.1 ng/mL. […] All samples from a given study subject were extracted and analyzed at the same time using the same calibration standards.
Based on the clinical trials discussed above, several equations were derived which allow an individual to calculate the washout period (i.e., the time between stopping vortioxetine and initiating treatment with an MAOI). Data points to consisted of pre-dose plasma vortioxetine concentration (C) on each study day (t), both during (Days 1-29) and after (Days 30-57) the period of vortioxetine administration. […]

The molecule `CC[C@@H]([C@H](C)O)n1ncn(-c2ccc(N3CCN(c4ccc(OC[C@@H]5CO[C@@](Cn6cncn6)(c6ccc(F)cc6F)C5)cc4)CC3)cc2)c1=O` [posaconazole] returned an elimination half-life of 78.2 h.
